Test results reported in article PMC3758111 (Planta medica, 2013).
Like-named read-outs stand apart in the source and are kept apart here.

Legend:
[1] = rats, oral, as pure compound or in E. purpurea root extract; cited from earlier work
[2] = 3 h after oral 60% ethanolic extract of E. angustifolia containing 0.4–2 mg of Bauer alkamide 8 and 10; cited from earlier work
[3] = Transepithelial transfer across Caco-2 cell monolayers; assay type: in vitro ADME, human; details: human
Caco-2 cell monolayers = assay: as above; assay type: in vitro ADME, human; details: for Concentration dependency of uptake / Permeation rates at 37 °C compared with 4 °C: pure compounds; for Permeation rates at 37 °C compared with 4 °C: AP-BL
[4] = test system: prostaglandin E (2) production in lipopolysaccharide-stimulated RAW264.7 macrophages; details: cited from earlier work
[5] = incubation with NADPH and human liver microsomes; cited from earlier work
[6] = test system: nitric oxide production in lipopolysaccharide-stimulated RAW264.7 macrophages; details: cited from earlier work
Caco-2 cells [7] = assay: Cytotoxicity of pure compounds and extracts to Caco-2 cells; assay type: cell-based, human; details: vs control 0.3% v/v DMSO in DMEM, p < 0.05; tested 10–1000 μM
Caco-2 cells [8] = assay: Glucuronidation by Caco-2 cells; details: for Compartments in which glucuronide metabolites were found: pure compound, 25 μM applied apically
[9] = target: P-glycoprotein transporter (P-gp) (Homo sapiens, UniProt P08183); assay: P-gp assay: calcein-AM efflux in Caco-2 cells; assay type: cell-based; details: for Concentration that significantly inhibited P-gp activity: single compounds, calcein-AM, Caco-2, p < 0.05
[10] = test system: multidrug transporter P-glycoprotein (P-gp); details: isolated from E. pallida; human proximal tubular kidney cells; cited from earlier work
[11] = 100 μM, 72 h, 37°C, RPMI 1640 medium; cited from earlier work
Caco-2 monolayers = details: extracted and isolated from E. pallida roots; cited from earlier work
[12] = Caco-2, pH 7.4, Papp, After, single compound, 10–100 μM, subsequent to deconjugation with β-glucuronidase, n=9
[13] = Caco-2, pH 7.4, Papp, Before, single compound, 10–100 μM, prior to deconjugation with β-glucuronidase, n=9

Sequence of P-glycoprotein transporter (P-gp) (P08183 whole entry): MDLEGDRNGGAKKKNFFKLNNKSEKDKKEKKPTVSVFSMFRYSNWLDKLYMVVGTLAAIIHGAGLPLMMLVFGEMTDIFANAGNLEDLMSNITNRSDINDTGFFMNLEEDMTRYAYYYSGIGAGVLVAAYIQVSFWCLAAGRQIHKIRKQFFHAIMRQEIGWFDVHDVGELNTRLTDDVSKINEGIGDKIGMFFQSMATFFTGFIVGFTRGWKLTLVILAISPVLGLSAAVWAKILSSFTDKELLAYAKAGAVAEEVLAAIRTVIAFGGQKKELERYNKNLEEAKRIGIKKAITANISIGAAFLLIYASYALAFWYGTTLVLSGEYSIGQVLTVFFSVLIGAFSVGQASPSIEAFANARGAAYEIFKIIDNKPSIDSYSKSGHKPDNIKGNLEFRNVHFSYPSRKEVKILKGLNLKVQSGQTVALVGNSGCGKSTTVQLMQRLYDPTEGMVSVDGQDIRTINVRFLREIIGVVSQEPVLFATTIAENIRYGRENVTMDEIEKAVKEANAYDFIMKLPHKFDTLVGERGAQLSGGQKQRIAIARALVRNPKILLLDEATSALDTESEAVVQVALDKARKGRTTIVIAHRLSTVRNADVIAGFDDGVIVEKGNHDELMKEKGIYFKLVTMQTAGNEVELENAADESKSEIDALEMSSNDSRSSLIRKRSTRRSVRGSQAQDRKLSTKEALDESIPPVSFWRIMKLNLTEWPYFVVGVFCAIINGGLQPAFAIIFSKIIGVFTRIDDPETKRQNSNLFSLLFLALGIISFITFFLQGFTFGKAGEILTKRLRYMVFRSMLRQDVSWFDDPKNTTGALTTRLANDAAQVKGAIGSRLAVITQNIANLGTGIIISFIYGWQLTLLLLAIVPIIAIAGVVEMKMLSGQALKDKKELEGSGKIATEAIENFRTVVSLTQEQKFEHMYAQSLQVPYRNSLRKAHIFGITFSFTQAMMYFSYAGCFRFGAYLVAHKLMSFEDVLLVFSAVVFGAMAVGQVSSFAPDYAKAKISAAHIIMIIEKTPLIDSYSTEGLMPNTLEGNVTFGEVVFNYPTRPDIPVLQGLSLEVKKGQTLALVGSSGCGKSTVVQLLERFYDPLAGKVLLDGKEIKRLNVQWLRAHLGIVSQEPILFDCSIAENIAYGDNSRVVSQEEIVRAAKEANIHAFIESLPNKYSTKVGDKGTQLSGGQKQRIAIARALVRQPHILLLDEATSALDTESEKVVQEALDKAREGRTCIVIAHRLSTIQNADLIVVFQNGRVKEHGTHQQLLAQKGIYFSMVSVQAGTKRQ

C/C=C\C=C/CC/C=C/C=C/C(=O)NCC(C)C [Bauer alkamide 8, (2E,4E,8Z,10Z)-N-isobutyldodeca-2,4,8,10-tetraenamide]
Glucuronide or sulfate metabolite in urine [1]: no glucuronide or sulfate metabolite was present
Fraction of the ingested dose found in human blood [2]: about 5%
Papp at 90 min [3, 12]: 39.8 ± 13.4 ×10⁻⁶ cm/s
Papp at 90 min [3, 13]: 43.8 ± 11.2 ×10⁻⁶ cm/s
Papp of Bauer alkamide 8 relative to Bauer alkamide 10 (Caco-2 cell monolayers; Table 2): ~ 2.5 ×
Papp of Bauer alkamide 8 relative to Bauer alkamide 11 (Caco-2 cell monolayers; Table 2): ~ 15 ×
Concentration dependency of uptake (Caco-2 cell monolayers; 10–100 μM): increased linearly and exhibited non-saturable transport
Permeation rates at 37 °C compared with 4 °C (Caco-2 cell monolayers): No significant differences
Prostaglandin E (2) production ([4]; 50 μM): significantly decrease
Metabolites formed [5]: Monohydroxylated, monoepoxidized, and N-dealkylated metabolites
Nitric oxide production ([6]; 50 μM): significantly decrease
Concentrations significantly cytotoxic to Caco-2 cells (Caco-2 cells [7]): > 350 µM
Compartments in which glucuronide metabolites were found (Caco-2 cells [8]): only in the apical side
Concentration that significantly inhibited P-gp activity [9]: 175 µM

CCC/C=C\CC/C=C/C=C/C(=O)NCC(C)C [Bauer alkamide 10, (2E,4E,8Z)-N-isobutyldodeca-2,4,8-trienamide]
Fraction of the ingested dose found in human blood [2]: ~1%
Papp at 90 min [3, 12]: 18.3 ± 5.9 ×10⁻⁶ cm/s
Papp at 90 min [3, 13]: 17.7 ± 8.8 ×10⁻⁶ cm/s
Concentration dependency of uptake (Caco-2 cell monolayers; 10–100 μM): increased linearly and exhibited non-saturable transport
Permeation rates at 37 °C compared with 4 °C (Caco-2 cell monolayers): No significant differences
Compartments in which glucuronide metabolites were found (Caco-2 cells [8]): in the apical side and cell lysates
Concentration that significantly inhibited P-gp activity [9]: 205 µM

CCCCCCC/C=C/C=C/C(=O)NCC(C)C [Bauer alkamide 11, (2E,4E)-N-isobutyldodeca-2,4-dienamide]
Papp at 90 min [3, 13]: 2.8 ± 1.5 ×10⁻⁶ cm/s
Concentration dependency of uptake (Caco-2 cell monolayers; 10–100 μM): increased linearly and exhibited non-saturable transport
Permeation rates at 37 °C compared with 4 °C (Caco-2 cell monolayers): No significant differences
Prostaglandin E (2) production ([4]; 50 μM): significantly decrease
Nitric oxide production ([6]; 50 μM): significantly decrease
Concentrations significantly cytotoxic to Caco-2 cells (Caco-2 cells [7]): > 460 µM
Compartments in which glucuronide metabolites were found (Caco-2 cells [8]): in the basolateral side and cell lysates
Concentration that significantly inhibited P-gp activity [9]: 230 µM

C/C=C\C#CC/C=C\CCCCCC(C)=O [Bauer ketone 24, pentadeca-(8Z, 13Z)-diene-11-yn-2-one]
Papp at 90 min ([3]; Caco-2, pH 7.4, Papp from E. sanguinea or E. pallida extracts): 12 to 17 ×10⁻⁶ cm/s
Detection of parent compound apically, basolaterally or in cell lysates (Caco-2 cell monolayers; applied as pure compound, 10–100 μM, any time point 15–90 min): not found
Recovered in the basolateral side (Caco-2 cell monolayers; compound as contained in the two Echinacea species extracts): About 5%
Prostaglandin E (2) production ([4]; 5 μM): significantly decrease
Concentrations inhibiting P-gp [10]: 3 to 200 µg/mL
Nitric oxide production ([6]; 5 μM): significantly decrease
Hydroperoxide intermediate formation, of the parent compound [11]: about 25%
Concentrations significantly cytotoxic to Caco-2 cells (Caco-2 cells [7]): > 990 µM
Metabolism when incubated with Bauer alkamides 8, 10 and 11 (Caco-2 cells [8]; 10–100 μM, data not shown): totally metabolized
Metabolism when administered as a single compound (Caco-2 cells [8]; Caco-2 cells): totally metabolized to more hydrophilic metabolites
Recovery relative to applied amount after β-glucuronidase treatment (Caco-2 cells [8]; contained in E. sanguinea and E. pallida extracts, basolaterally and in cell lysates): significantly increased
Apparent permeability (Caco-2 monolayers): 10 ± 3 cm/s ×10^−6
Effect on P-gp activity ([9]; single compound, tested concentrations 1–250 μM): not active
